Values of other authors, collected in patent publication US11420990B2, “Ruthenium complex containing alkynyl group, method of synthesizing the same and use thereof” (GUANGDONG PHARMACEUTICAL UNIVERSITY, priority 2018, dated 2022).

Tested on: cancer cells
Conditions: background statement

## [Ru+2].c1ccc(-c2ccccn2)nc1.c1ccc(-c2ccccn2)nc1.c1ccc2nc3c4cccnc4c4ncccc4c3nc2c1 [[Ru(bpy)2(dppz)]^2+]
  cytotoxicity to cancer cells (in words): insignificant cytotoxicity
